Source: patent US7723068B2, “Gene cluster involved in safracin biosynthesis and its uses for genetic engineering” (PharmaMar, S.A., priority 2002, dated 2010)

What was measured:
[1] = Antibacterial and antitumoral activities, general statements; conditions: compared with safracin A / safracin B
[2] = different tumor cell lines; background; cited from earlier work
[3] = Biological Activities of natural precursors (test not specified)
PROTEIN synthesis = experiment: Secondary Screening, Macromolecules Synthesis PROTEIN; type: cell-based; conditions: Secondary Evaluation
DNA synthesis = experiment: Secondary Screening, Macromolecules Synthesis DNA; type: cell-based; conditions: Secondary Evaluation
RNA synthesis = experiment: Secondary Screening, Macromolecules Synthesis RNA; type: cell-based; conditions: Secondary Evaluation
Apoptosis (NUCLEOSOMES) = experiment: Secondary Screening, Apoptosis NUCLEOSOMES; type: cell-based; conditions: Secondary Evaluation
DNA = experiment: Secondary Screening, DNA Binding GEL; conditions: Secondary Evaluation
Bacillus subtilis = experiment: Antimicrobial activity on solid medium, disk; type: cell-based; conditions: Bacillus subtilis, 10 μg/disk (6 mm diameter)
Method: Antimicrobial activity: On solid medium Bacillus subtilis. 10 μg/disk (6 mm diameter): 10 mm inhibition zone Spectroscopic Data: […]

DU-145 [4] = conditions: Prostate
LN-caP [5] = conditions: Prostate
IGROV [6] = conditions: Ovary
IGROV-ET [7] = conditions: Ovary
SK-BR3 [8] = conditions: Breast
SK-MEL-28 [9] = conditions: Melanoma
A549 [10] = conditions: NSCL
K-562 [11] = conditions: Leukemia
PANC1 [12] = conditions: Pancreas
HT29 [13] = conditions: Colon
LOVO [14] = conditions: Colon
LOVO-DOX [15] = conditions: Colon
HELA [16] = conditions: Cervix
HELA-APL [17] = conditions: Cervix
DU-145 [18] = experiment: cells; conditions: Homo sapiens; for GI50: DU-145, read-out: GI50 DU-145; for CC50: DU-145, read-out: LC50 DU-145
LN-caP [19] = experiment: cells; conditions: Homo sapiens, LNCaP; for GI50: read-out: GI50 LN-caP; for CC50: read-out: LC50 LN-caP
IGROV [20] = experiment: cells; conditions: for GI50: read-out: GI50 IGROV; for CC50: read-out: LC50 IGROV
IGROV-ET [21] = experiment: cells; conditions: for GI50: read-out: GI50 IGROV-ET; for CC50: read-out: LC50 IGROV-ET
SK-BR3 [22] = experiment: cells; conditions: Homo sapiens; for GI50: SK-BR-3, read-out: GI50 SK-BR3; for CC50: SK-BR-3, read-out: LC50 SK-BR3
SK-MEL-28 [23] = experiment: cells; conditions: Homo sapiens; for GI50: SK-MEL-28, read-out: GI50 SK-MEL-28; for CC50: SK-MEL-28, read-out: LC50 SK-MEL-28
A549 [24] = experiment: cells; conditions: Homo sapiens; for GI50: A549, read-out: GI50 A549; for CC50: A549, read-out: LC50 A549
K-562 [25] = experiment: cells; conditions: Homo sapiens; for GI50: K562, read-out: GI50 K-562; for CC50: K562, read-out: LC50 K-562
PANC1 [26] = experiment: cells; conditions: Homo sapiens; for GI50: PANC-1, read-out: GI50 PANC1; for CC50: PANC-1, read-out: LC50 PANC1
HT29 [27] = experiment: cells; conditions: Homo sapiens; for GI50: HT-29, read-out: GI50 HT29; for CC50: HT-29, read-out: LC50 HT29
LOVO [28] = experiment: cells; conditions: Homo sapiens; for GI50: read-out: GI50 LOVO; for CC50: read-out: LC50 LOVO
LOVO-DOX [29] = experiment: cells; conditions: for GI50: read-out: GI50 LOVO-DOX; for CC50: read-out: LC50 LOVO-DOX
HELA [30] = experiment: cells; conditions: Homo sapiens; for GI50: read-out: GI50 HELA; for CC50: read-out: LC50 HELA
HELA-APL [31] = experiment: cells; conditions: for GI50: read-out: GI50 HELA-APL; for CC50: read-out: LC50 HELA-APL

COC1=C(C)C(=O)C2=C(C1=O)[C@H](CNC(=O)[C@H](C)N)N1C[C@@H]3Cc4cc(C)c(OC)c(O)c4[C@H]([C@@H]1C2)N3C [Safracin A, reference compound]
antibacterial and antitumoral activities (in words) [1]: less antibiotic and antitumoral activity
antitumor and antibacterial activity (in words) [2]: possess antitumor activity in addition to antibacterial activity

COc1ccc(C[C@H](N)C(=O)O)cc1C [Safracin P-14, 3-methyl-O-methyltyrosine]
Biological Activities [3]: NO ACTIVE

CCOC1=C(C)C(=O)C2=C(C1=O)C(CNC(=O)C(C)N)N1C(O)C3Cc4cc(C)c(OCC)c(O)c4C(C1C2)N3C (centres unmarked) [Safracin B (OEt)]
IC50 (PROTEIN synthesis): > 17.6 µM
IC50 (DNA synthesis): 1.76 µM
IC50 (RNA synthesis): 0.176 µM
IC50 (Apoptosis (NUCLEOSOMES)): 0.0528 µM
IC50 (DNA): 17.6 µM
zone of inhibition at 10 µg/disc (Bacillus subtilis): 17.5 mm
antibacterial and antitumoral activities (in words) [1]: as potent as the activities of safracin A and safracin B, respectively
TGI DU-145 (DU-145 [4]): 1.01 µM
TGI LN-caP (LN-caP [5]): >17.6 µM
TGI IGROV (IGROV [6]): 0.0997 µM
TGI IGROV-ET (IGROV-ET [7]): 1.19 µM
TGI SK-BR3 (SK-BR3 [8]): 0.116 µM
TGI SK-MEL-28 (SK-MEL-28 [9]): 0.44 µM
TGI A549 (A549 [10]): 1.16 µM
TGI K-562 (K-562 [11]): 0.108 µM
TGI PANC1 (PANC1 [12]): 2.06 µM
TGI HT29 (HT29 [13]): 1.39 µM
TGI LOVO (LOVO [14]): 1.09 µM
TGI LOVO-DOX (LOVO-DOX [15]): 9.88 µM
TGI HELA (HELA [16]): 0.315 µM
TGI HELA-APL (HELA-APL [17]): 0.274 µM
GI50 (DU-145 [18]): 0.401 µM
CC50 (DU-145 [18]): 16 µM
GI50 (LN-caP [19]): 0.0484 µM
CC50 (LN-caP [19]): 0.828 µM
GI50 (IGROV [20]): 0.0406 µM
CC50 (IGROV [20]): 4.27 µM
GI50 (IGROV-ET [21]): 0.682 µM
CC50 (IGROV-ET [21]): 6.37 µM
GI50 (SK-BR3 [22]): 0.0482 µM
CC50 (SK-BR3 [22]): 1.02 µM
GI50 (SK-MEL-28 [23]): 0.169 µM
CC50 (SK-MEL-28 [23]): 1.13 µM
GI50 (A549 [24]): 0.501 µM
CC50 (A549 [24]): 5.66 µM
GI50 (K-562 [25]): 0.0397 µM
CC50 (K-562 [25]): 3.69 µM
GI50 (PANC1 [26]): 0.649 µM
CC50 (PANC1 [26]): 13.5 µM
GI50 (HT29 [27]): 0.244 µM
CC50 (HT29 [27]): > 17.6 µM
GI50 (LOVO [28]): 0.443 µM
CC50 (LOVO [28]): > 17.6 µM
GI50 (LOVO-DOX [29]): 2.09 µM
CC50 (LOVO-DOX [29]): > 17.6 µM
GI50 (HELA [30]): 0.0892 µM
CC50 (HELA [30]): 1.35 µM
GI50 (HELA-APL [31]): 0.077 µM
CC50 (HELA-APL [31]): 0.976 µM

COc1c(C)cc(C[C@H](N)C(=O)O)cc1O [Safracin P-2, 3-hydroxy-5-methyl-O-methyltyrosine]
Biological Activities [3]: NO ACTIVE

COC1=C(C)C(=O)C2=C(C1=O)C(CNC(=O)C(C)N)N1C(O)C3Cc4cc(C)c(OC)c(O)c4C(N3)C1C2 (centres unmarked) [Safracin D]
IC50 (PROTEIN synthesis): 19 µM
IC50 (DNA synthesis): 15.2 µM
IC50 (RNA synthesis): 3.8 µM
IC50 (Apoptosis (NUCLEOSOMES)): 2.85 µM
IC50 (DNA): 6.65 µM
zone of inhibition at 10 µg/disc (Bacillus subtilis): 15 mm
antibacterial and antitumoral activities (in words) [1]: the same antibacterial and antitumoral activities as safracin B and safracin A, respectively
TGI DU-145 (DU-145 [4]): 9.99 µM
TGI LN-caP (LN-caP [5]): 4.12 µM
TGI IGROV (IGROV [6]): 6.02 µM
TGI IGROV-ET (IGROV-ET [7]): 3.34 µM
TGI SK-BR3 (SK-BR3 [8]): 7.82 µM
TGI SK-MEL-28 (SK-MEL-28 [9]): 6.21 µM
TGI A549 (A549 [10]): 10.7 µM
TGI K-562 (K-562 [11]): 1.16 µM
TGI PANC1 (PANC1 [12]): 11 µM
TGI HT29 (HT29 [13]): 17.9 µM
TGI LOVO (LOVO [14]): 18.2 µM
TGI LOVO-DOX (LOVO-DOX [15]): 8.85 µM
TGI HELA (HELA [16]): 6.68 µM
TGI HELA-APL (HELA-APL [17]): 5.24 µM
GI50 (DU-145 [18]): 5.22 µM
CC50 (DU-145 [18]): 19 µM
GI50 (LN-caP [19]): 1.54 µM
CC50 (LN-caP [19]): 9.78 µM
GI50 (IGROV [20]): 2.68 µM
CC50 (IGROV [20]): 13.5 µM
GI50 (IGROV-ET [21]): 1.33 µM
CC50 (IGROV-ET [21]): 9.15 µM
GI50 (SK-BR3 [22]): 4.71 µM
CC50 (SK-BR3 [22]): 13 µM
GI50 (SK-MEL-28 [23]): 3.51 µM
CC50 (SK-MEL-28 [23]): 11 µM
GI50 (A549 [24]): 6.04 µM
CC50 (A549 [24]): 18.8 µM
GI50 (K-562 [25]): 0.604 µM
CC50 (K-562 [25]): 3.78 µM
GI50 (PANC1 [26]): 4.77 µM
CC50 (PANC1 [26]): > 19 µM
GI50 (HT29 [27]): 4.33 µM
CC50 (HT29 [27]): > 19 µM
GI50 (LOVO [28]): 6.99 µM
CC50 (LOVO [28]): > 19 µM
GI50 (LOVO-DOX [29]): 4.75 µM
CC50 (LOVO-DOX [29]): 16.5 µM
GI50 (HELA [30]): 3.76 µM
CC50 (HELA [30]): 11.9 µM
GI50 (HELA-APL [31]): 2.28 µM
CC50 (HELA-APL [31]): 12.1 µM

CCOC1=C(C)C(=O)C2=C(C1=O)C(CNC(=O)C(C)N)N1CC3Cc4cc(C)c(OCC)c(O)c4C(C1C2)N3C (centres unmarked) [Safracin A (OEt)]
IC50 (PROTEIN synthesis): 6.33 µM
IC50 (DNA synthesis): 1.81 µM
zone of inhibition at 10 µg/disc (Bacillus subtilis): 10 mm
antibacterial and antitumoral activities (in words) [1]: as potent as the activities of safracin A and safracin B, respectively
TGI DU-145 (DU-145 [4]): 5.39 µM
TGI LN-caP (LN-caP [5]): 0.742 µM
TGI IGROV (IGROV [6]): 0.928 µM
TGI IGROV-ET (IGROV-ET [7]): 5.1 µM
TGI SK-BR3 (SK-BR3 [8]): 1.16 µM
TGI SK-MEL-28 (SK-MEL-28 [9]): 1.9 µM
TGI A549 (A549 [10]): 7.17 µM
TGI K-562 (K-562 [11]): 0.686 µM
TGI PANC1 (PANC1 [12]): 5.83 µM
TGI HT29 (HT29 [13]): 4.41 µM
TGI LOVO (LOVO [14]): 4.41 µM
TGI LOVO-DOX (LOVO-DOX [15]): 9.84 µM
TGI HELA (HELA [16]): 2.91 µM
TGI HELA-APL (HELA-APL [17]): 2.32 µM
GI50 (DU-145 [18]): 2.64 µM
CC50 (DU-145 [18]): 11 µM
GI50 (LN-caP [19]): 0.378 µM
CC50 (LN-caP [19]): 1.45 µM
GI50 (IGROV [20]): 0.492 µM
CC50 (IGROV [20]): 1.76 µM
GI50 (IGROV-ET [21]): 2.01 µM
CC50 (IGROV-ET [21]): 13 µM
GI50 (SK-BR3 [22]): 0.555 µM
CC50 (SK-BR3 [22]): 5.57 µM
GI50 (SK-MEL-28 [23]): 0.796 µM
CC50 (SK-MEL-28 [23]): 5.77 µM
GI50 (A549 [24]): 4 µM
CC50 (A549 [24]): 12.8 µM
GI50 (K-562 [25]): 0.311 µM
CC50 (K-562 [25]): 1.51 µM
GI50 (PANC1 [26]): 3.06 µM
CC50 (PANC1 [26]): 11.1 µM
GI50 (HT29 [27]): 1.97 µM
CC50 (HT29 [27]): 9.88 µM
GI50 (LOVO [28]): 2.03 µM
CC50 (LOVO [28]): 9.61 µM
GI50 (LOVO-DOX [29]): 5.72 µM
CC50 (LOVO-DOX [29]): 16.9 µM
GI50 (HELA [30]): 1.02 µM
CC50 (HELA [30]): 7.85 µM
GI50 (HELA-APL [31]): 0.764 µM
CC50 (HELA-APL [31]): 6.69 µM

COC1=C(C)C(=O)C2=C(C1=O)[C@H](CNC(=O)[C@H](C)N)N1[C@@H](O)[C@H]3Cc4cc(C)c(OC)c(O)c4[C@@H]([C@@H]1C2)N3C [Safracin B]
antitumor and antibacterial activity (in words) [2]: possess antitumor activity in addition to antibacterial activity
